Data reported in patent publication US20250073346A1, “PHARMACEUTICAL COMBINATIONS” (Oxford Bio Therapeutics Ltd, priority 2021, published 2025).

Tests used:
[1] = test system: HT-29 cells; test: Platin after 72 hr LY75_A1 pre-treatment, cell viability (cell-titer glo); assay type: cell-based
Method: (§1) Cells were diluted in excess media and spun down. […] The plate was Incubated for 24 hr at 37° C. to allow cells to adhere and become acclimatized prior to addition of drug. The plates were incubated for 72 hr at 37° C. After 72 hr, the media was removed and replaced with either cisplatin or oxaliplatin at various concentrations (see figures) in 100 ul media before incubation for a further 48 hr.
(§2) After the incubation period, the plate was removed from the incubator and left at room temperature for 30 minutes. Media was removed from the plate which was washed twice with 200 ul PBS. The plate was then treated with cell-titer glo (CTG) following the manufacturer's protocol (Promega, Catalog No. G9681). Briefly, 200 ul CTG solution/well was added before incubating at RT on a plate rotator at low speed for 2 min before incubation in the dark for a further 10 min.
(§3) The plates were removed and the viability under the various conditions calculated.

[2] = test system: N87 cells; test: as above; assay type: cell-based; details: for reduction of IC50 in cells pre-treated with LY75_A1: pre-treated with LY75_A1 for 72 hours
Method: as §1, §2, §3

[3] = test system: HPAFII cells; test: as above; assay type: cell-based; details: for viability of cells: HPAFII, ~50 uM oxaliplatin
Method: as §1, §2, §3

[4] = test system: NCI-N87 gastric cancer xenograft; test: Subcutaneous NCI-N87 gastric cancer xenograft model; assay type: in vivo, mouse
Method: The animals were fed ad libitum water (reverse osmosis, 1 ppm CI) and NIH 31 Modified and Irradiated Lab Diet® consisting standard rodent chow. The mice were housed on Crushed corncob bedding, autoclaved; changed weekly on a 12-hour light cycle at 20-22° C. (68-72° F.) and 40-60% humidity.
The NCI-N87 tumor cells were maintained in vitro with RMPI 1640 medium supplemented with 10% fetal bovine serum at 37° C. in an atmosphere of 5% CO2 in air. The cells in exponential growth phase were harvested and quantitated by cell counter before tumor inoculation.
Each mouse was inoculated subcutaneously in the right upper flank region with NCI-N87 tumor cells (1×10^7) in PBS mixed with matrigel (1:1) for tumor development. After tumor inoculation, the animals were checked daily for morbidity and mortality. During routine monitoring, the animals were checked for any effects of tumor growth and treatments on behavior such as mobility, food and water consumption, body weight gain/loss (Body weights would be measured two times per week after randomization), eye/hair matting and any other abnormalities. Mortality and observed clinical signs were recorded for individual animals in detail.
Tumor volumes were measured two times per week after randomization in two dimensions using a caliper, and the volume was expressed in mm3 using the formula: V=(L×W×W)/2, where V is tumor volume, L is tumor length (the longest tumor dimension) and W is tumor width (the longest tumor dimension perpendicular to L). Dosing as well as tumor and body weight measurements were conducted in a Laminar Flow Cabinet.
The randomization started when the mean tumor size reached approximately 183 mm3. […]
Each animal was euthanized for tumor progression (TP) when its tumor reached the […] endpoint. The time to endpoint (TTE) for each mouse was calculated with the following equation: TTE=log (endpoint volume)−b/m. […] Any animal determined to have died from treatment-related (TR) causes was to be assigned a TTE value equal to the day of death. […]
Treatment outcome was evaluated from tumor growth delay (TGD), which was defined as the increase in the median TTE for a treatment group compared to the control group: TGD=T−C expressed in days or as a percentage of the median TTE for the control group % TGD=T−C/C×100 where, T=median TTE for a treatment group, C=median TTE for the control group.
Animals were weighed daily on Days 1-5, and then twice weekly until the end of the study. Group mean BW nadirs were determined before more than 50% of the animals in a group exited the study. The mice were observed frequently for health and overt signs of any adverse TR side effects, and clinical observations were recorded, if observed. […]

[5] = molecular target: T1, LY75 (Homo sapiens, UniProt O60449); test: Immunohistochemistry with anti-LY75 antibody on FFPE Triple Negative breast cancer samples
T1 construct: tissue US Biomax Inc. or Origene; host or cells: FFPE triple negative breast cancer tissue sections/arrays
T1 sequence (O60449 28-1722): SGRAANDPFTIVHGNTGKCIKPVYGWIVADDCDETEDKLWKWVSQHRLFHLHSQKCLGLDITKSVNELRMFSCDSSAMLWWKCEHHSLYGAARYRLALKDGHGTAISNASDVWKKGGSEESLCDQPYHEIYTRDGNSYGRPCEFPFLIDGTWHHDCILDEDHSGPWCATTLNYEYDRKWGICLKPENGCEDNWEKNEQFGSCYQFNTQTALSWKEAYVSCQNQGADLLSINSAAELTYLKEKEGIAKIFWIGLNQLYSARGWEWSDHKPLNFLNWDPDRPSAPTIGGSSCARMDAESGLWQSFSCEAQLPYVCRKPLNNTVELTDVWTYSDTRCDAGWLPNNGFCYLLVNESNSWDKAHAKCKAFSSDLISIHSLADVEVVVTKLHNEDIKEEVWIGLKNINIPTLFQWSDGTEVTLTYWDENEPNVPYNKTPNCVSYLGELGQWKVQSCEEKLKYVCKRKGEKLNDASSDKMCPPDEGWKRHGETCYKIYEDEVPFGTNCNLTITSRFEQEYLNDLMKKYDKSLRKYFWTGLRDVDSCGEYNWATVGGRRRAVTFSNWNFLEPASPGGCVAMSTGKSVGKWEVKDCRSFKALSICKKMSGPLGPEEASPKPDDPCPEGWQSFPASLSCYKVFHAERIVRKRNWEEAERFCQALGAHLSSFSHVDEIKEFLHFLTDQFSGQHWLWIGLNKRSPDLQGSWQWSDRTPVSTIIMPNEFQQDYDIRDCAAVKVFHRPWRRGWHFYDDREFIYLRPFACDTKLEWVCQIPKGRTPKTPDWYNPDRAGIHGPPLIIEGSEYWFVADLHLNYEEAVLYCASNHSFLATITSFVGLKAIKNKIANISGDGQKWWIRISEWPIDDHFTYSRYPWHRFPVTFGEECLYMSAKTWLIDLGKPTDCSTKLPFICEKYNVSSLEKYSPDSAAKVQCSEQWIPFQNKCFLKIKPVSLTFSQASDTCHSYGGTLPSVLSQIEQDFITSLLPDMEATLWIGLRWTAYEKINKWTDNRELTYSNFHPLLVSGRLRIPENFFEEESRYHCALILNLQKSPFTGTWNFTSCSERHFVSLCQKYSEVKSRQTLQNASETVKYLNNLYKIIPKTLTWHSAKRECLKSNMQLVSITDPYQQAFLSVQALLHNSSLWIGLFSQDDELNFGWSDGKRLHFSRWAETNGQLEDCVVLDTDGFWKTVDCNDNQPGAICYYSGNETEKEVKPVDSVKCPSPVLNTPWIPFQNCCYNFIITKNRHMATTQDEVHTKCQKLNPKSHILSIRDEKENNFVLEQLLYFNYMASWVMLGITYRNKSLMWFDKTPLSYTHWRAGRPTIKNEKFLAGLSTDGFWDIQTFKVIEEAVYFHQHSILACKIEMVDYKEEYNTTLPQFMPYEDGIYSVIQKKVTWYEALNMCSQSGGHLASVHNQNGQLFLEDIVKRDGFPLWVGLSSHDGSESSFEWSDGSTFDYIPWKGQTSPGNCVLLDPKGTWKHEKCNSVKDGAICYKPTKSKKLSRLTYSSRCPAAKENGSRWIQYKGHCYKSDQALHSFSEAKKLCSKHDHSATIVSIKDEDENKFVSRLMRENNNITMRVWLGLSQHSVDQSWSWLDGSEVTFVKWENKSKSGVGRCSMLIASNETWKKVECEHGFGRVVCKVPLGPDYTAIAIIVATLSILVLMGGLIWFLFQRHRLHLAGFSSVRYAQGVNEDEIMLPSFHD
Method: (§4) Using the human monoclonal antibodies specific to LY75, immunohistochemistry was performed on FFPE HT-29 and A549 cell pellets, FFPE non-Hodgkin's lymphoma and pancreatic cancer arrays, and fresh frozen lymphoma/leukaemia tumours, ovarian cancer, pancreatic cancer, and breast cancer sections and a normal tissue array.
FFPE slides were deparaffinised in xylene (2×3 minutes) then rehydrated through 1:1 xylene: 100% ethanol (1×3 minutes), 100% ethanol (2×3 minutes), 95% ethanol (1×3 minutes), 70% ethanol (1×3 minutes), 50% ethanol (1×3 minutes), and tap water (1×3 minutes).
(§5) The LY75 antigen was retrieved using microwave heat, high power until boiling then low power for 10 minutes in 50 mL 1×citrate buffer in a Coplin jar. Slides were then left to cool to room temperature for a further 15 min, then washed in tap water, 3 minutes. Circles were drawn around each tissue section/TMA with a hydrophobic barrier pen and slides were then washed 3 times in PBS, 3 minutes each wash.
The primary anti-LY75 antibody was diluted in serum free protein block (SFPB) to obtain a solution with a concentration 20-fold greater than the final desired concentration (20 μg/mL for 1 μg/mL final). The secondary antibody, goat anti-human immunoglobulin G (IgG) antigen-binding fragment (Fab), was prepared similarly in SFPB to create a solution of equal concentration. […]

[6] = molecular target: T2, LY75 (DEC-205), lymphocyte antigen 75 (human, UniProt O60449 28-1722); test: immunohistochemistry on FFPE human tumour tissue sections
T2 construct: Endogenous LY75 in human tumour tissue sections and on human tumour cell lines
T2 sequence (O60449 28-1722 limits assumed): as the sequence (O60449 28-1722) above
Method: as §4, §5
Meanwhile, endogenous tissue peroxidase activity was blocked by incubating tissues with peroxidase suppressor for 5-10 minutes at RT in a humidified chamber. Slides were then washed in PBS 3×3 minutes each wash. Tissues were incubated in SFPB for 30 minutes at room temperature in a humidified chamber. Final staining complexes were applied to each tissue section and/or microarray, and the slides were incubated for 30 min at room temperature in a humidified chamber. Slides were then washed once in PBS and once in PBST (PBS+0.125% Tween-20), 3 minutes each wash. […]

[7] = HT29 cells pretreated with 0.5 nM LY75_A1 for 72 hours
[8] = HT29 cells pretreated with 2 nM LY75_A1 for 72 hours
[9] = N87 cells pretreated with 1 nM LY75_A1 for 72 hours
[10] = N87 cells pretreated with 10 nM LY75_A1 for 72 hours
[11] = single agent, single i.v. dose day 1 (OBT076 1 mg/kg; Oxaliplatin 5 mg/kg)

N.N.[Cl][Pt][Cl] [Cisplatin, cis-diamminedichloroplatinum(II)]
IC50 [1, 7]: 44.6 µM | IC50 [1, 8]: 18.7 µM | IC50 ([1]; HT29 cells, cisplatin alone, 48 hr): 44.7 µM | viability of cells ([1]; HT-29, ~10 uM cisplatin, not pre-treated, FIG. 5B): no cell death | viability of cells ([1]; HT-29, ~10 uM cisplatin, pre-treated with 2 nM LY75_A1, FIG. 5B): significantly lower than those which are not pre-treated | viability of cells ([2]; N87, ~3 uM cisplatin, not pre-treated, FIG. 5E): no cell death | viability of cells ([2]; N87, ~3 uM cisplatin, pre-treated with 1 or 10 nM LY75_A1, FIG. 5E): significantly lower than those which are not pre-treated | IC50 [2, 9]: 3.5 µM | IC50 [2, 10]: 0.9 µM | IC50 ([2]; N87 cells, cisplatin alone, 48 hr): 10 µM | reduction of IC50 in cells pre-treated with LY75_A1 ([2]; N87 cells): 10 fold

O=C1[O][Pt]2([NH][C@@H]3CCCC[C@H]3[NH]2)[O]C1=O [Oxaliplatin]
IC50 ([3]; HPAFII cells pretreated with 1 nM LY75_A1 for 72 hours): 85.4 µM | IC50 ([3]; HPAFII cells pretreated with 3 nM LY75_A1 for 72 hours): 62.1 µM | IC50 ([3]; HPAFII cells pretreated with 10 nM LY75_A1 for 72 hours): 58.8 µM | IC50 ([3]; HPAFII cells, oxaliplatin alone, 48 hr): ~256 µM | reduction of IC50 in cells pre-treated with LY75_A1 ([3]; HPAFII cells, pre-treated with LY75_A1 for 72 hours): approximately 4 fold | viability of cells ([3]; not pre-treated, FIG. 5C): no cell death | viability of cells ([3]; pre-treated with all concentrations (1, 3, 10 nM) of LY75_A1, FIG. 5C): significantly lower than those which are not pre-treated | IC50 [1, 7]: 55.1 µM | IC50 [1, 8]: 32.7 µM | IC50 ([1]; HT29 cells, oxaliplatin alone, 48 hr): 66.8 µM | viability of cells ([1]; HT-29, ~10 uM oxaliplatin, not pre-treated, FIG. 5A): no cell death | viability of cells ([1]; HT-29, ~10 uM oxaliplatin, pre-treated with 2 nM LY75_A1, FIG. 5A): significantly lower than those which are not pre-treated | viability of cells ([2]; N87, ~10 uM oxaliplatin, not pre-treated, FIG. 5D): no cell death | viability of cells ([2]; N87, ~10 uM oxaliplatin, pre-treated with 1 or 10 nM LY75_A1, FIG. 5D): significantly lower than those which are not pre-treated | IC50 [2, 9]: 14.1 µM | IC50 [2, 10]: 1 µM | IC50 ([2]; N87 cells, oxaliplatin alone, 48 hr): 44.5 µM | reduction of IC50 in cells pre-treated with LY75_A1 ([2]; N87 cells): 44 fold | mice that had died ([4]; by Day 81, single agent alone): ~71% | TGI on day 60 [4, 11]: 0.49% | Tumor Size (mm^3) on day 60 [4, 11]: 1969.92 +/− 258.93 mm^3 | % Survival ([4]; to Day 81, single agent, single i.v. dose day 1 (OBT076 1 mg/kg; Oxaliplatin 5 mg/kg)): 28.57%

B1: LY75_A1 monoclonal antibody (antibody, human IgG1, kappa, V domains shown)
VH: EVQLVESGGGLVKPGGSLRLSCAASGFTYSNAWMSWVRQAPGKGLEWVGRIKSKTDGGTTDYAAPVQGRFTISRDDSKNTLYLQMNSLKTEDTAVYYCTIFGVVSFDYWGQGTLVTVSS
VL: DVQMTQSPSSLSASVGDRVTITCRASQSISDYLSWYQQRPGKAPNLLIYAASNLKTGVPSRFSGSGSGTDFTLTISTLQPEDFATYYCQQSYRSPWTFGQGTKVEIKR
notes: Human antibody, detected with goat anti-human IgG Fab in the immunohistochemistry; also called anti-LY75_A1
sections exhibited robust (+++) staining [5]: 55% | sections showed positive staining [5]: 77% | binding result [6]: binds
